Calls of active or inactive are those of the source. Some results are limits rather than exact numbers.

In data set [1] the target is T1, Muscarinic acetylcholine receptor M5 (Rattus norvegicus, UniProt P08911).
T1 sequence (P08911 whole entry): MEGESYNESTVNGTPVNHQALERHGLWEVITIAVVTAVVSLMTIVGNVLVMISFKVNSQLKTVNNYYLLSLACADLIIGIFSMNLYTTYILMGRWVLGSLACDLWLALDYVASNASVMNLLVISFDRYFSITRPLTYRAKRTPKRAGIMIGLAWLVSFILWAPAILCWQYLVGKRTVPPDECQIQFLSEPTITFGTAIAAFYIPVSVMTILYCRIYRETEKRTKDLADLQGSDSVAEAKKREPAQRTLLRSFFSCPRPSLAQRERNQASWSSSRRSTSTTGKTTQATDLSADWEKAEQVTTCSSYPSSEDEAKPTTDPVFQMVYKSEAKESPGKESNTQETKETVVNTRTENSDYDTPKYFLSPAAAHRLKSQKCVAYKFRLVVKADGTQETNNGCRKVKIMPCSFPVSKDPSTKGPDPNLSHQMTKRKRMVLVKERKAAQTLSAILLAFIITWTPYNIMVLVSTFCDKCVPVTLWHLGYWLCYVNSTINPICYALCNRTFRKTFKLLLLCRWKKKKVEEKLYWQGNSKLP
The experiment in a line: Negative allosteric modulation of rat muscarinic acetylcholine receptor M5 expressed in CHO cells assessed as inhibition of acetylcholine-induced calcium mobilization incubated for 150 secs prior to acetylcholine induction by Fluo4AM staining-based fluorescence assay. Format: functional, cell-based. For orientation: Calcium flux is commonly read through the fluorescence of an indicator in the cells.

Data set [2] has as its target T2, Muscarinic acetylcholine receptor M5 (Homo sapiens, UniProt P08912).
T2 sequence (P08912 whole entry): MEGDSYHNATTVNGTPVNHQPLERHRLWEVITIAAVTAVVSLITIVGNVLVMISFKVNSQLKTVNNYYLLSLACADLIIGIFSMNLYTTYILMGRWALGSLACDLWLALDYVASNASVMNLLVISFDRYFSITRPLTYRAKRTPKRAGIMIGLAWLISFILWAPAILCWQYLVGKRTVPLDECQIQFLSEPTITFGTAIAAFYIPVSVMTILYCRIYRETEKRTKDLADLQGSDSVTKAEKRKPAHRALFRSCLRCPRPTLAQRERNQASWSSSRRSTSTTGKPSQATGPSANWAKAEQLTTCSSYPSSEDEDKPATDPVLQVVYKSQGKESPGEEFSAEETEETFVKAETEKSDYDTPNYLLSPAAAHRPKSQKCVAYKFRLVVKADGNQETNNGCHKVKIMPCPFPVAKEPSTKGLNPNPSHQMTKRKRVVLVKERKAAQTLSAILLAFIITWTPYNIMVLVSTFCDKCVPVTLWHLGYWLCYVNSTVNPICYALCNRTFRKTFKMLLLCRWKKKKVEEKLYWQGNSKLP
Description: Negative allosteric modulation of human muscarinic acetylcholine receptor M5 expressed in CHO cells assessed as inhibition of acetylcholine-induced calcium mobilization incubated for 150 secs prior to acetylcholine induction by Fluo4AM staining-based fluorescence assay.

For data set [3], the system named is Plasma. The experiment in a line: (§1) Fraction unbound in human plasma. Format: ADME, cell-free.
Data set [4] has as its system Plasma. The experiment in a line: (§2) Fraction unbound in Sprague-Dawley rat plasma. Format: ADME, cell-free.
The nature of data set [5]: as §1. Format: ADME, cell-free.
Data set [6] deals with T3, Muscarinic acetylcholine receptor M5 (Homo sapiens) (UniProt P08912).
T3 sequence (whole entry): T2 sequence (P08912 whole entry)
The settings on record: CHO.

A short description of data set [7]: AUC (0 to infinity) in Sprague-Dawley rat at 10 mg/kg, po pretreated with 56.6 mg/kg, po 1-aminobenzotriazole. On the set-up: dose 10 mg/kg, time infinity, route oral. Format: ADME, organism-based. The settings on record: plasma.
A short description of data set [8]: Tmax in Sprague-Dawley rat at 10 mg/kg, po. On the set-up: dose 10 mg/kg, route oral. Format: ADME, organism-based. Particulars: in vivo.
Data set [9] is described as follows: Intrinsic clearance in human liver microsomes. Particulars: read-out: CLH. Format: ADME. (Microsomes from liver hold many membrane-bound enzymes, among them those of drug oxidation.)
Data set [10] is described as follows: Half life in Sprague-Dawley rat at 1 mg/kg, iv. Format: ADME, organism-based. On the set-up: dose 1 mg/kg, route intravenous. Particulars: in vivo.
The nature of data set [11]: Intrinsic clearance in rat hepatocytes. Format: ADME, cell-based, Hepatocyte. Particulars: read-out: CLH.
The nature of data set [12]: Mean residence time in Sprague-Dawley rat at 10 mg/kg, po. On the set-up: dose 10 mg/kg, route oral. Format: ADME, organism-based. Particulars: in vivo.
Data set [13] can be described thus: Cmax in Sprague-Dawley rat in brain at 10 mg/kg, po pretreated with 56.6 mg/kg, po 1-aminobenzotriazole. Format: ADME, organism-based. On the set-up: dose 10 mg/kg, route oral.
For data set [14], the system named is Rattus norvegicus. The experiment in a line: AUC (0 to infinity) in Sprague-Dawley rat at 10 mg/kg, po. Format: ADME, organism-based, Plasma. On the set-up: time infinity, dose 10 mg/kg, route oral. The settings on record: in vivo.
A short description of data set [15]: as §2. Particulars: Sprague-Dawley. Format: ADME, cell-free.
The nature of data set [16]: Intrinsic clearance in rat liver microsomes. Format: ADME. The settings on record: read-out: CLH.
The nature of data set [17]: Cmax in Sprague-Dawley rat in plasma at 10 mg/kg, po pretreated with 56.6 mg/kg, po 1-aminobenzotriazole. Format: ADME, organism-based. On the set-up: dose 10 mg/kg, route oral.
For data set [18], the system named is Plasma. The experiment in a line: fCmax in Sprague-Dawley rat plasma at 10 mg/kg, po pretreated with 56.6 mg/kg, po 1-aminobenzotriazole. Particulars: in vivo. Format: ADME, organism-based.
Data set [19] is described as follows: Fraction unbound in Sprague-Dawley rat brain. Particulars: brain tissue. Format: ADME, tissue-based.
Data set [20] has as its system Rattus norvegicus. The experiment in a line: Oral bioavailability in Sprague-Dawley rat at 10 mg/kg. Format: ADME, organism-based. Particulars: in vivo.
Data set [21] is described as follows: Volume of distribution at steady state in Sprague-Dawley rat at 1 mg/kg, iv. Particulars: in vivo, read-out: Vdss. Format: ADME, organism-based. On the set-up: dose 1 mg/kg, route intravenous.
Data set [22] in a line: Oral bioavailability in Sprague-Dawley rat at 10 mg/kg pretreated with 56.6 mg/kg, po 1-aminobenzotriazole. Format: ADME, organism-based. The settings on record: in vivo.
The nature of data set [23]: Intrinsic clearance in human hepatocytes. Format: ADME, cell-based, Hepatocyte. The settings on record: read-out: CLH.

One may read the IC50 as the concentration at which inhibition is half-maximal. Take `COc1ccc(C23c4ccccc4C(=O)N2CCN3C(=O)c2cc(F)c(F)c(F)c2)cc1C` (racemic): the IC50 came out at 0.963 µM in data set [1] (read-out: IC50) and 0.51 µM in data set [2].

Regarding `COc1ccc(C23c4ccccc4C(=O)N2CCN3C(=O)c2ccc(F)c(F)c2)cc1` (racemic), the Fu in data set [3] was 0.037; in data set [4], 0.064. The IC50 in [2] stood at 1.3 µM.

A word on the fraction unbound: it is the share of the substance not bound to proteins or other matrix. High values mean weak binding, low ones extensive binding. In the case of `COc1ccc([C@]23c4ccccc4C(=O)N2CCN3C(=O)c2cc(F)c(F)c(F)c2)cc1C`, the IC50 entry in data set [1] (cho) and in data set [2] (cho) was “Not Active” each time. The compound further gave a fraction unbound in data set [5] of 0.013. For the same compound, the pIC50 result in [6] was “inactive”.

The AUC(0-inf) is total exposure, with the tail of the curve extrapolated. For orientation: Tmax means the time at which the peak concentration occurs. What is called half-life is the time needed for the level to fall by half in the phase considered. A word on the MRT: it is the average time that molecules of a dose stay in the body. The Cmax is the maximum level reached in the sampled fluid or tissue. As usually defined, the AUC is concentration integrated over time. Read a high AUC as high exposure. In general, bioavailability refers to dose-corrected exposure relative to a reference, in per cent. For `COc1ccc([C@@]23c4ccccc4C(=O)N2CCN3C(=O)c2cc(F)c(F)c(F)c2)cc1C`, the AUC(0-inf) in [7] was determined as 17700 ng·h/mL. Moreover, in data set [8], the Tmax was 2.8 h. Besides, the figures for the IC50 in [1] (read-out: IC50) and in data set [2] were 0.516 µM and 0.264 µM, respectively. Also, the CLint scaled in data set [9] was determined as 359 mL/min/kg; in [11] it was 57.8 mL/min/kg; in [16] it was 332 mL/min/kg; in [23], 19.8 mL/min/kg. This compound gave a half-life in [10] of 1.08 h. In addition, the MRT in [12] was found to be 6.5 h. Moreover, the Cmax in data set [13] worked out at 5.4 µM; in data set [17] it was 2 µM. For the same compound, the AUC in data set [14] was determined as 3660 ng·h/mL. The values for the fraction unbound in [15] and in [19] were 0.031 and 0.006, respectively. In addition, the fCmax in [18] amounted to 62 nM. The compound further displayed a F in [20] of 2%. Besides, in data set [21], the Vd turned out to be 4.9 L/kg. Besides, the bioavailability in [22] was 9.5%.

`O=C(c1ccc(F)c(F)c1)N1CCN2C(=O)c3ccccc3C12c1ccc(Cl)cc1` (racemic): the Fu in [3] worked out at 0.015; in data set [4], 0.031.

Take `O=C(c1ccc(F)c(F)c1)N1CCN2C(=O)c3ccccc3C12C1CCCCC1` (racemic): the Fu in data set [3] is given as 0.008; in [4], 0.016. In addition, the IC50 in [2] amounted to 2.1 µM.

In the case of `O=C(c1cc(F)nc(F)c1)N1CCN2C(=O)c3ccccc3C12c1ccc(Cl)cc1` (racemic), the IC50 in data set [2] was > 10 µM.

On to `O=C(c1ccnc(F)c1)N1CCN2C(=O)c3ccccc3C12c1ccc(Cl)cc1` (racemic), for which the IC50 in data set [2] amounted to 5.8 µM.

As for `COc1cc(C23c4ccccc4C(=O)N2CCN3C(=O)c2ccc(OC(C)C)cc2)ccc1C` (racemic), the IC50 in [2] is 2.2 µM.

For `COc1cc(C23c4ccccc4C(=O)N2CCN3C(=O)c2cc(F)c(F)c(F)c2)ccc1Cl` (racemic), in [2], the IC50 came out at 1.6 µM.

As to `COc1ccc(C23c4ccccc4C(=O)N2CCN3C(=O)c2ccc(OC(C)C)cc2)cc1Cl` (racemic), the IC50 in data set [2] worked out at 3.3 µM.

For `O=C(c1ccc(F)c(F)c1)N1CCN2C(=O)c3ccccc3C12c1cccnc1` (racemic), the IC50 in [2] was > 10 µM.

`COc1ccc(C23c4ccccc4C(=O)N2CCN3C(=O)c2cc(F)c(F)c(F)c2)cc1F` (racemic): in [2], the IC50 is > 30 µM.

Turning to `CC(C)Oc1ccc(C(=O)N2CCN3C(=O)c4ccccc4C23c2ccc(OC(C)C)cc2)cc1` (racemic), the IC50 in [2] worked out at 1.9 µM.

Consider `O=C(c1ccnnc1)N1CCN2C(=O)c3ccccc3C12c1ccc(Cl)cc1` (racemic), for which the IC50 in data set [2] is > 10 µM.

Regarding `O=C(c1cc(F)c(F)c(F)c1)N1CCN2C(=O)c3ccccc3C12c1ccc(Cl)cc1` (racemic), the IC50 in data set [2] was determined as 0.61 µM.

For `CC(C)Oc1ccc(C23c4ccccc4C(=O)N2CCN3C(=O)c2ccc(F)c(F)c2)cc1` (racemic), in [2], the IC50 was > 30 µM.

Regarding `CCOc1ccc(C23c4ccccc4C(=O)N2CCN3C(=O)c2ccc(OC(C)C)cc2)cc1` (racemic), the IC50 in data set [2] was 4.1 µM.

For the compound `CCOc1ccc(C23c4ccccc4C(=O)N2CCN3C(=O)c2cc(F)c(F)c(F)c2)cc1` (racemic), the IC50 in data set [2] is > 30 µM.

As for `[2H]C([2H])([2H])Oc1ccc([C@@]23c4ccccc4C(=O)N2CCN3C(=O)c2cc(F)c(F)c(F)c2)cc1C`, the CLint scaled is 55.8 mL/min/kg in data set [11], 275 mL/min/kg in [16] and 16.3 mL/min/kg in data set [23].

`COc1cc(C23c4ccccc4C(=O)N2CCN3C(=O)c2ccc(OC(C)C)cc2)ccc1F` (racemic): the IC50 in data set [2] worked out at 1.3 µM.

On to `CCOc1ccc(C(=O)N2CCN3C(=O)c4ccccc4C23c2ccc(Cl)cc2)cc1` (racemic), for which the IC50 in [2] was 0.85 µM.

As to `COc1ccc(C23c4ccccc4C(=O)N2CCN3C(=O)c2ccc(OC(C)C)cc2)cc1C` (racemic), the concentration for half-maximal inhibition (IC50) in [2] worked out at 1.3 µM.

Consider `COc1cc(C23c4ccccc4C(=O)N2CCN3C(=O)c2ccc(F)c(F)c2)ccc1C` (racemic), for which the IC50 in data set [2] is 1.3 µM.

These data come from ChEMBL document CHEMBL3351438, “Further optimization of the M5 NAM MLPCN probe ML375: tactics and challenges” (Bioorg Med Chem Lett, 2015).
